Read-outs that look alike come from different tables or passages of the source.
Assays:
[1] = test system: A427; experiment: IC50 assay, NSCLC cell lines (Cell Titer Glo, total ATP); format: cell-based; details: Homo sapiens
Procedure: (§1) Cells were plated at ˜15% confluence in a media comprising 5% concentration of fetal bovine serum supplemented with RPMI, which included 2 mM L-Glutamine in a 96 well dish. […] Following three days of incubation in a 5% CO2 incubator, the total ATP in each well was quantified using Cell Titer Glo (Promega). […] The solid lines represent the medians.

[2] = test system: A549; experiment: as above; format: cell-based; details: Homo sapiens
Procedure: as §1

[3] = test system: Calu-6; experiment: as above; format: cell-based; details: Homo sapiens
Procedure: as §1

[4] = test system: H1155; experiment: as above; format: cell-based; details: Homo sapiens
Procedure: as §1

[5] = test system: H1355; experiment: as above; format: cell-based; details: Homo sapiens
Procedure: as §1

[6] = test system: H1437; experiment: as above; format: cell-based; details: Homo sapiens
Procedure: as §1

[7] = test system: H1568; experiment: as above; format: cell-based; details: Homo sapiens
Procedure: as §1

[8] = test system: H1573; experiment: as above; format: cell-based; details: Homo sapiens, NCI-H1573, read-out: Indisulam IC50 (log 10) (converted), U2AF1 WT
Procedure: as §1

[9] = test system: H157; experiment: as above; format: cell-based; details: Homo sapiens
Procedure: as §1

[10] = test system: H1693; experiment: as above; format: cell-based; details: Homo sapiens
Procedure: as §1

[11] = test system: H1703; experiment: as above; format: cell-based; details: Homo sapiens
Procedure: as §1

[12] = test system: H1770; experiment: as above; format: cell-based; details: Homo sapiens
Procedure: as §1

[13] = test system: H2106; experiment: as above; format: cell-based; details: Homo sapiens
Procedure: as §1

[14] = test system: H2172; experiment: as above; format: cell-based; details: Homo sapiens
Procedure: as §1

[15] = test system: H2882; experiment: as above; format: cell-based; details: Homo sapiens
Procedure: as §1

[16] = test system: H3122; experiment: as above; format: cell-based; details: Homo sapiens
Procedure: as §1

[17] = test system: H358; experiment: as above; format: cell-based; details: Homo sapiens
Procedure: as §1

[18] = test system: H441; experiment: as above; format: cell-based; details: Homo sapiens
Procedure: as §1

[19] = test system: H460; experiment: as above; format: cell-based; details: Homo sapiens, NCI-H460, read-out: Indisulam IC50 (log 10) (converted), U2AF1 WT
Procedure: as §1

[20] = test system: H720; experiment: as above; format: cell-based; details: Homo sapiens
Procedure: as §1

[21] = test system: H838; experiment: as above; format: cell-based; details: Homo sapiens
Procedure: as §1

[22] = test system: H920; experiment: as above; format: cell-based; details: Homo sapiens
Procedure: as §1

[23] = test system: HCC1359; experiment: as above; format: cell-based; details: Homo sapiens
Procedure: as §1

[24] = test system: HCC15; experiment: as above; format: cell-based; details: Homo sapiens
Procedure: as §1

[25] = test system: HCC95; experiment: as above; format: cell-based; details: Homo sapiens
Procedure: as §1

[26] = test system: non-small cell lung cancer cell lines; experiment: IC50 assay, U2AF1 S34F vs wild type NSCLC cell lines; format: cell-based, human; details: four S34F vs sixty-six wild type lines; p=0.01
Procedure: as §1

[27] = read-out: Indisulam IC50 (log 10) (converted), U2AF1 WT
[28] = read-out: Indisulam IC50, U2AF1 WT

NS(=O)(=O)c1ccc(S(=O)(=O)Nc2cccc3c(Cl)c[nH]c23)cc1 [Indisulam, indisulam]
IC50 ([1]; A-427, read-out: Indisulam IC50 (log 10) (converted), U2AF1 WT): 13.9 µM | IC50 ([1]; A-427, read-out: Indisulam IC50, U2AF1 WT): 13.9 µM | IC50 [2, 27]: 46.6 µM | IC50 [2, 28]: 46.6 µM | IC50 [3, 27]: 1.51 µM | IC50 [3, 28]: 1.51 µM | IC50 ([4]; NCI-H1155, read-out: Indisulam IC50 (log 10) (converted), U2AF1 WT): 0.242 µM | IC50 ([4]; NCI-H1155, read-out: Indisulam IC50, U2AF1 WT): 0.242 µM | IC50 ([5]; NCI-H1355, read-out: Indisulam IC50 (log 10) (converted), U2AF1 WT): 2.5 µM | IC50 ([5]; NCI-H1355, read-out: Indisulam IC50, U2AF1 WT): 2.5 µM | IC50 ([6]; NCI-H1437, read-out: Indisulam IC50 (log 10) (converted), U2AF1 WT): 14 µM | IC50 ([6]; NCI-H1437, read-out: Indisulam IC50, U2AF1 WT): 14 µM | IC50 ([7]; NCI-H1568, read-out: Indisulam IC50 (log 10) (converted), U2AF1 WT): 265 µM | IC50 ([7]; NCI-H1568, read-out: Indisulam IC50, U2AF1 WT): 265 µM | IC50 [8]: ≥ 500 µM | IC50 ([9]; NCI-H157, read-out: Indisulam IC50 (log 10) (converted), U2AF1 WT): 140 µM | IC50 ([9]; NCI-H157, read-out: Indisulam IC50, U2AF1 WT): 140 µM | IC50 ([10]; NCI-H1693, read-out: Indisulam IC50 (log 10) (converted), U2AF1 WT): 5.17 µM | IC50 ([10]; NCI-H1693, read-out: Indisulam IC50, U2AF1 WT): 5.17 µM | IC50 ([11]; NCI-H1703, read-out: Indisulam IC50 (log 10) (converted), U2AF1 WT): 3.33 µM | IC50 ([11]; NCI-H1703, read-out: Indisulam IC50, U2AF1 WT): 3.33 µM | IC50 ([12]; NCI-H1770, read-out: Indisulam IC50 (log 10) (converted), U2AF1 WT): 16.2 µM | IC50 ([12]; NCI-H1770, read-out: Indisulam IC50, U2AF1 WT): 16.2 µM | IC50 [13, 27]: 0.616 µM | IC50 [13, 28]: 0.616 µM | IC50 ([14]; NCI-H2172, read-out: Indisulam IC50 (log 10) (converted), U2AF1 WT): 20.5 µM | IC50 ([14]; NCI-H2172, read-out: Indisulam IC50, U2AF1 WT): 20.5 µM | IC50 ([15]; NCI-H2882, read-out: Indisulam IC50 (log 10) (converted), U2AF1 WT): 12.2 µM | IC50 ([15]; NCI-H2882, read-out: Indisulam IC50, U2AF1 WT): 12.2 µM | IC50 ([16]; NCI-H3122, read-out: Indisulam IC50 (log 10) (converted), U2AF1 WT): 70.1 µM | IC50 ([16]; NCI-H3122, read-out: Indisulam IC50, U2AF1 WT): 70.1 µM | IC50 ([17]; NCI-H358, read-out: Indisulam IC50 (log 10) (converted), U2AF1 WT): ≥ 500 µM | IC50 ([17]; NCI-H358, read-out: Indisulam IC50, U2AF1 WT): 2840 µM | IC50 ([18]; NCI-H441, read-out: Indisulam IC50 (log 10) (converted), U2AF1 S34F): 59.5 µM | IC50 ([18]; NCI-H441, read-out: Indisulam IC50, U2AF1 S34F): 59.5 µM | IC50 [19]: ≥ 500 µM | IC50 [20, 27]: 1.79 µM | IC50 [20, 28]: 1.79 µM | IC50 ([21]; NCI-H838, read-out: Indisulam IC50 (log 10) (converted), U2AF1 WT): 1.03 µM | IC50 ([21]; NCI-H838, read-out: Indisulam IC50, U2AF1 WT): 1.03 µM | IC50 [22, 27]: 2.17 µM | IC50 [22, 28]: 2.17 µM | IC50 ([23]; read-out: Indisulam IC50 (log 10) (converted), U2AF1 WT (listed twice)): ≥ 50 µM | IC50 ([23]; read-out: Indisulam IC50, U2AF1 WT (listed twice)): ≥ 50 µM | IC50 [24, 27]: 6.32 µM | IC50 [24, 28]: 6.32 µM | IC50 [25, 27]: 9.5 µM | IC50 [25, 28]: 9.5 µM | sensitivity of U2AF1 S34F vs U2AF1 wild type NSCLC cell lines [26]: more sensitive
